In PubChem BioAssay AID504877 (The Scripps Research Institute Molecular Screening Center, 2011):
Several values for one entry are separate records, joined by “and”; a condition that tells them apart may be missing. Identical values can stand only once. Activity calls are given as the source filed them. The rule behind the calls is not given here.

Target: Sphingosine 1-phosphate receptor 4 (Homo sapiens) (UniProt O95977)
Assay: S1P4 receptor agonist potency, late-stage follow-up, cell-based, fluorescence, dose response, synthesized compounds set 2 (AID 504877)
Conditions: S1P4 cell-based agonist assay, fluorescence read-out

SMILES: CCN=C1S/C(=C/c2cc(C)n(-c3ccc(Cl)cc3F)c2C)C(=O)N1CC
- EC50 (run 1): 0.49 µM
- EC50 (run 2): 0.733 µM
- EC50 (run 3): 0.37 µM

SMILES: CN=C1S/C(=C\c2ccn(-c3ccccc3F)c2)C(=O)N1C
- EC50 (run 1): > 50 µM (inactive)
- EC50 (run 2): > 50 µM (inactive)
- EC50 (run 3): > 50 µM (inactive)

SMILES: CCN=C1S/C(=C/c2ccn(-c3ccc(F)cc3F)c2)C(=O)N1CC
- EC50 (run 1): inactive
- EC50 (run 2): > 50 µM (inactive)
- EC50 (run 3): 5.39 µM

SMILES: CN=C1S/C(=C/c2cc(C)n(Cc3ccccc3)c2C)C(=O)N1C
- EC50 (run 1): 0.203 µM
- EC50 (run 2): 0.454 µM
- EC50 (run 3): 0.13 µM

SMILES: CCN=C1S/C(=C/c2cc(C)n(-c3ncccc3F)c2C)C(=O)N1CC
- EC50 (run 1): 5.31 µM
- EC50 (run 2): inactive
- EC50 (run 3): 0.918 µM

SMILES: CCN=C1S/C(=C/c2cc(C)n(C(C)c3ccccc3)c2C)C(=O)N1CC (stereo not drawn)
- EC50 (run 1): inactive
- EC50 (run 2): > 50 µM (inactive)
- EC50 (run 3): inactive

SMILES: Cc1cc(/C=C2\SC(=O)N(C)C2=O)c(C)n1-c1ccccc1F
- EC50 (run 1): > 50 µM (inactive)
- EC50 (run 2): > 50 µM (inactive)
- EC50 (run 3): 8.96 µM

SMILES: CN=C1S/C(=C/c2cc(C)n(-c3ccccc3C)c2C)C(=O)N1C
- EC50 (run 1): > 50 µM (inactive)
- EC50 (run 2): > 50 µM (inactive)
- EC50 (run 3): inactive

SMILES: CN=C1NC(=O)/C(=C\c2cc(C)n(-c3cccc(F)c3)c2C)S1
- EC50 (run 1): > 50 µM (inactive)
- EC50 (run 2): > 50 µM (inactive)
- EC50 (run 3): > 50 µM (inactive)

SMILES: CCN=C1S/C(=C\c2cc(C)n(Cc3ccccc3F)c2C)C(=O)N1CC
- EC50 (run 1): > 50 µM (inactive)
- EC50 (run 2): > 50 µM (inactive)
- EC50 (run 3): > 50 µM (inactive)

SMILES: CN=C1S/C(=C\c2cc(C)n(-c3ccccc3Br)c2C)C(=O)N1C
- EC50 (run 1): > 50 µM (inactive)
- EC50 (run 2): > 50 µM (inactive)
- EC50 (run 3): > 50 µM (inactive)

SMILES: CN=C1NC(=O)/C(=C\c2cc(C)n(-c3ccccc3F)c2C)S1
- EC50 (run 1): 5.38 µM
- EC50 (run 2): 4.53 µM
- EC50 (run 3): 0.942 µM

SMILES: COCCN=C1S/C(=C\c2cc(C)n(-c3ccc(F)cc3F)c2C)C(=O)N1C
- EC50 (run 1): 0.0377 µM and 0.0514 µM
- EC50 (run 2): 0.0791 µM

SMILES: Cc1cc(/C=C2\SC(=Nc3ccccc3)NC2=O)c(C)n1-c1ccccc1F
- EC50 (run 1): > 50 µM (inactive)
- EC50 (run 2): > 50 µM (inactive)
- EC50 (run 3): > 50 µM (inactive)

SMILES: Cc1cc(/C=C2\SC(=NC(C)C)N(C(C)C)C2=O)c(C)n1-c1ccccc1F
- EC50 (run 1): > 50 µM (inactive)
- EC50 (run 2): > 50 µM (inactive)
- EC50 (run 3): > 50 µM (inactive)

SMILES: C/N=C1/SC(=Cc2cc(C)n(Cc3ccc(F)cc3F)c2C)C(=O)N1C
- EC50 (run 1): 0.0847 µM
- EC50 (run 2): 0.195 µM
- EC50 (run 3): 0.161 µM

SMILES: CN=C1S/C(=C\c2cc(C)n(-c3ccc(F)cc3F)c2C)C(=O)N1CCOC
- EC50 (run 1): 1.58 µM
- EC50 (run 2): 0.00185 µM

SMILES: CN=C1S/C(=C\c2ccn(Cc3ccccc3)c2)C(=O)N1C
- EC50 (run 1): > 50 µM (inactive)
- EC50 (run 2): > 50 µM (inactive)
- EC50 (run 3): > 50 µM (inactive)

SMILES: CCN=C1S/C(=C\c2ccn(-c3ccccc3F)c2)C(=O)N1CC
- EC50 (run 1): > 50 µM (inactive)
- EC50 (run 2): > 50 µM (inactive)
- EC50 (run 3): inactive

SMILES: CCN=C1S/C(=C/c2cc(C)n(Cc3ccccc3)c2C)C(=O)N1CC
- EC50 (run 1): 0.598 µM
- EC50 (run 2): 0.703 µM
- EC50 (run 3): 0.154 µM

SMILES: CC/N=C1/SC(=Cc2cc(C)n(Cc3ccccc3OC)c2C)C(=O)N1CC
- EC50 (run 1): 0.274 µM
- EC50 (run 2): 0.663 µM
- EC50 (run 3): 0.285 µM

SMILES: CCN=C1S/C(=C/c2cc(C)n(-c3ccc(F)cc3F)c2C)C(=O)N1CC
- EC50 (run 1): 0.0753 µM
- EC50 (run 2): 0.133 µM
- EC50 (run 3): 0.104 µM

SMILES: CCN=C1S/C(=C\c2cc(C)n(-c3ccccc3F)c2C)C(=O)N1CC
- EC50 (run 1): 0.116 µM
- EC50 (run 2): 0.268 µM
- EC50 (run 3): 0.368 µM

SMILES: CN=C1S/C(=C/c2cc(C)n(-c3ccc(Cl)cc3F)c2C)C(=O)N1C
- EC50 (run 1): 0.432 µM
- EC50 (run 2): 0.686 µM
- EC50 (run 3): 0.202 µM

SMILES: COCCN=C1S/C(=C\c2cc(C)n(Cc3ccccc3)c2C)C(=O)N1CCOC
- EC50 (run 1): > 50 µM (inactive)
- EC50 (run 2): > 50 µM (inactive)
- EC50 (run 3): inactive

SMILES: Cc1cc(/C=c2\sc3n(c2=O)CCCN=3)c(C)n1-c1ccccc1F
- EC50 (run 1): > 50 µM (inactive)
- EC50 (run 2): > 50 µM (inactive)
- EC50 (run 3): > 50 µM (inactive)

SMILES: CCN=C1S/C(=C/c2cc(C)n(-c3ccccn3)c2C)C(=O)N1CC
- EC50 (run 1): 0.158 µM
- EC50 (run 2): 0.212 µM
- EC50 (run 3): 0.102 µM

SMILES: CCN=C1S/C(=C\c2cc(C)n(-c3ccccc3)c2C)C(=O)N1CC
- EC50 (run 1): 0.635 µM
- EC50 (run 2): 0.705 µM
- EC50 (run 3): 0.465 µM

SMILES: CN=C1S/C(=C/c2cc(C)n(-c3cc(C)ccc3OC)c2C)C(=O)N1C
- EC50 (run 1): > 50 µM (inactive)
- EC50 (run 2): > 50 µM (inactive)
- EC50 (run 3): > 50 µM (inactive)

SMILES: CN=C1S/C(=C/c2cc(C)n(-c3ccc(F)cc3F)c2C)C(=O)N1C
- EC50 (run 1): 0.113 µM
- EC50 (run 2): 0.199 µM
- EC50 (run 3): 0.317 µM
